Data on one compound can be found in US10493077B2, “Fused imidazo-piperidine JAK inhibitor compound” (THERAVANCE BIOPHARMA R&D IP, LLC, priority 2017, dated 2019).

Each structure is given as a SMILES string.

One assay addresses T1, KIT (Homo sapiens, UniProt P10721).
T1 construct: made in house; host or cells: T7 phage in E. coli (BL21-derived) or HEK-293
Description: Kinome screen, KIT. As to conditions: screened at 1 μM. In kind it is binding. As to the method:
(§1) Kinase-tagged T7 phage strains were grown in parallel in 24-well blocks in an E. coli host derived from the BL21 strain. E. coli were grown to log-phase and infected with T7 phage from a frozen stock (multiplicity of infection=0.4) and incubated with shaking at 32° C. until lysis (90-150 minutes). The lysates were centrifuged (6,000×g) and filtered (0.2 μm) to remove cell debris. The remaining kinases were produced in HEK-293 cells and subsequently tagged with DNA for qPCR detection.
(§2) Streptavidin-coated magnetic beads were treated with biotinylated small molecule ligands for 30 minutes at room temperature to generate affinity resins for kinase assays. The liganded beads were blocked with excess biotin and washed with blocking buffer (SeaBlock (Pierce), 1% BSA, 0.05% Tween 20, 1 mM DTT) to remove unbound ligand and to reduce non-specific phage binding. […] Test compounds were prepared as 40× stocks in 100% DMSO and directly diluted into the assay. All reactions were performed in polypropylene 384-well plates in a final volume of 0.04 ml. […] The beads were then re-suspended in elution buffer (1×PBS, 0.05% Tween 20, 0.5 μM non-biotinylated affinity ligand) and incubated at room temperature with shaking for 30 minutes. The kinase concentration in the eluates was measured by qPCR.

Assay [1] has as its system IFNγ stimulated STAT1 phosphorylation in CD14+ monocytes. Description: Cellular JAK potency assay: inhibition of IFNγ-induced pSTAT1 in CD14+ monocytes. In kind it is cell-based. As to conditions: Homo sapiens, Monocyte, read-out: pIC50, inhibition of IFNγ-induced pSTAT1 (converted). As for the experimental part: The potency of the test compound for inhibition of interferon gamma (IFNγ) stimulated STAT1 phosphorylation was measured in CD14-positive (CD14+) monocytes derived from human whole blood (Stanford Blood Center) using flow cytometry. Because IFNγ signals through JAK, this assay provides a measure of JAK cellular potency.
Monocytes were identified using a fluorescein isothiocyanate (FITC) conjugated anti-CD14 antibody (Clone RM052, Beckman Coulter), and an Alexa Fluor 647 conjugated anti-pSTAT1 antibody (pY701, Clone 4a, BD Biosciences) was used to detect STAT1 phosphorylation.
Human peripheral blood mononuclear cells (PBMC) were isolated from human whole blood of healthy donors using a ficoll gradient. […] Cells were washed twice with FACS buffer, and then resuspended in 1:10 anti-pSTAT1 Alexa Fluor 647:FACS buffer (100 μL) for 30 min at RT in the dark, washed twice in FACS buffer, and analyzed using a LSRII flow cytometer (BD Biosciences).
To determine the inhibitory potency of the test compound, the median fluorescent intensity (MFI) of pSTAT1 was measured in CD14+ monocytes. IC50 values were determined from analysis of the inhibition curves of MFI vs compound concentration. Data are expressed as pIC50 (negative decadic logarithm IC50) values.

A further assay deals with T2, CSF1R (Homo sapiens, UniProt P07333).
T2 construct: made in house; host or cells: T7 phage in E. coli (BL21-derived) or HEK-293
T2 sequence (P07333 20-972): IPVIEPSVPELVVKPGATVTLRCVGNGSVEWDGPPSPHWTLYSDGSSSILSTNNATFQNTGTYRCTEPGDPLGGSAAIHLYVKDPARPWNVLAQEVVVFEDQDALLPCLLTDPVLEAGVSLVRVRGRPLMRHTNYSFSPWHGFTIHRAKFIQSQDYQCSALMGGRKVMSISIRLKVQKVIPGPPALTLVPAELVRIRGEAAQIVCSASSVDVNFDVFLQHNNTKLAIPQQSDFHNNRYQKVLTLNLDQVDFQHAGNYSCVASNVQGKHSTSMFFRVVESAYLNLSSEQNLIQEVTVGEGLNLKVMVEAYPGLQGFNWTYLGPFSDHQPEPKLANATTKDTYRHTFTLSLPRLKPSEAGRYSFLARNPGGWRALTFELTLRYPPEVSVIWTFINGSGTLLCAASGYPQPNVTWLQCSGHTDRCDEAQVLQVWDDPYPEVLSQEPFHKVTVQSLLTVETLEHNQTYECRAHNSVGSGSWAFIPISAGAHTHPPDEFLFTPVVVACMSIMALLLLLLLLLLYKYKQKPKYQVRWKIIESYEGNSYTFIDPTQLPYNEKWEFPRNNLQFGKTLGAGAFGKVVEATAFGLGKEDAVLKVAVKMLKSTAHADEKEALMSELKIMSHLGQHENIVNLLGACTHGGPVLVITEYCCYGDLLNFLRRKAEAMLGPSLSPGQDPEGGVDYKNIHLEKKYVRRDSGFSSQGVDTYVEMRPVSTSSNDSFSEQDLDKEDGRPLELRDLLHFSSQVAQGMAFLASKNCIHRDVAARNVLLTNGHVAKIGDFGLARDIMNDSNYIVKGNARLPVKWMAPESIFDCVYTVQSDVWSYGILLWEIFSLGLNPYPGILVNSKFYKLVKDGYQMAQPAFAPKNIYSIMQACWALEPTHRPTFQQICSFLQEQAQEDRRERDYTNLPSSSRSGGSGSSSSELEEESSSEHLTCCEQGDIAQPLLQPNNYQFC
In words: Kinome screen, CSF1R. The class given is binding. As to conditions: screened at 1 μM. As to the method:
as §1, §2

The target of a further assay is T3, Tyk2 (Homo sapiens, UniProt P29597).
T3 construct: GST; purchased Life Technologies
T3 sequence (P29597 whole entry): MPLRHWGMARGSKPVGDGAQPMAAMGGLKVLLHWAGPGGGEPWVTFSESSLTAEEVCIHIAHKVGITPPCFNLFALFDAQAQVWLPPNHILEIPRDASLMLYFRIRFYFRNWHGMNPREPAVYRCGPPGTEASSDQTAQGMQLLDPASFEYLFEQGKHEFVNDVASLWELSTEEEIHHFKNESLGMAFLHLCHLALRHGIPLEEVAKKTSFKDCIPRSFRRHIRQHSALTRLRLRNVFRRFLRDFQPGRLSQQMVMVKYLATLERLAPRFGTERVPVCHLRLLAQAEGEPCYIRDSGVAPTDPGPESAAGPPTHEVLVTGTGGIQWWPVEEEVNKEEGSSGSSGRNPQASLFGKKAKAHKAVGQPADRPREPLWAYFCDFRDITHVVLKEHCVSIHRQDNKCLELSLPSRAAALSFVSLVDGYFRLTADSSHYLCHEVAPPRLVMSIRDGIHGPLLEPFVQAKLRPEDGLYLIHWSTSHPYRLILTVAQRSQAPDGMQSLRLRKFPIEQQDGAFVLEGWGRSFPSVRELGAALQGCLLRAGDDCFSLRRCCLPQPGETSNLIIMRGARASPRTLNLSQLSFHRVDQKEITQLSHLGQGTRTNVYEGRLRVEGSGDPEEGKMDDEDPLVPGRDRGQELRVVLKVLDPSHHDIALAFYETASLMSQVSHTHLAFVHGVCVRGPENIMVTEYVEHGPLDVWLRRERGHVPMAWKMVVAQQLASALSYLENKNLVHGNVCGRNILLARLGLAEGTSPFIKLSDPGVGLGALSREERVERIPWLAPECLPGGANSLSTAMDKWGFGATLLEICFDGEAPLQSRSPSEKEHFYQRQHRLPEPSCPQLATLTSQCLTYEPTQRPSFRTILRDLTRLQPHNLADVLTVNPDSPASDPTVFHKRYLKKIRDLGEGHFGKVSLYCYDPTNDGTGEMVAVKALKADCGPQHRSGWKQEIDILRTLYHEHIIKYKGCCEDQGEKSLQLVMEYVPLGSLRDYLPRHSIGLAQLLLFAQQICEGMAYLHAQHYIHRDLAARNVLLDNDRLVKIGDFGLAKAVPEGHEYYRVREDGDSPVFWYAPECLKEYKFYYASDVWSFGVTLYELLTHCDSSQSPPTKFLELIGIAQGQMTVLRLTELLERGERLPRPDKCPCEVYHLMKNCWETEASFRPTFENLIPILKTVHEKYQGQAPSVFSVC
In words: LanthaScreen JAK biochemical assay, Tyk2. As to conditions: read-out: Tyk2 pKi (converted). As for the experimental part: A panel of four LanthaScreen JAK biochemical assays (JAK1, 2, 3 and Tyk2) were carried in a common kinase reaction buffer (50 mM HEPES, pH 7.5, 0.01% Brij-35, 10 mM MgCl2, and 1 mM EGTA). Recombinant GST-tagged JAK enzymes and a GFP-tagged STAT1 peptide substrate were obtained from Life Technologies.
Serially diluted compound was pre-incubated with each of the four JAK enzymes and the substrate in white 384-well microplates (Corning) at ambient temperature for 1 h. ATP was subsequently added to initiate the kinase reactions in 10 μL total volume, with 1% DMSO. […] The plates were allowed to incubate at ambient temperature for 1 h before being read on the EnVision reader (Perkin Elmer). Emission ratio signals (520 nm/495 nm) were recorded and utilized to calculate the percent inhibition values based on DMSO and background controls.
For dose-response analysis, percent inhibition data were plotted vs. compound concentrations, and IC50 values were determined from a 4-parameter robust fit model with the Prism software (GraphPad Software). Results were expressed as pIC50 (negative logarithm of IC50) and subsequently converted to pKi (negative logarithm of dissociation constant, Ki) using the Cheng-Prusoff equation.
(In general: TR-FRET usually uses a lanthanide donor and a delayed reading to cut background.)

T1 sequence (P10721 26-976): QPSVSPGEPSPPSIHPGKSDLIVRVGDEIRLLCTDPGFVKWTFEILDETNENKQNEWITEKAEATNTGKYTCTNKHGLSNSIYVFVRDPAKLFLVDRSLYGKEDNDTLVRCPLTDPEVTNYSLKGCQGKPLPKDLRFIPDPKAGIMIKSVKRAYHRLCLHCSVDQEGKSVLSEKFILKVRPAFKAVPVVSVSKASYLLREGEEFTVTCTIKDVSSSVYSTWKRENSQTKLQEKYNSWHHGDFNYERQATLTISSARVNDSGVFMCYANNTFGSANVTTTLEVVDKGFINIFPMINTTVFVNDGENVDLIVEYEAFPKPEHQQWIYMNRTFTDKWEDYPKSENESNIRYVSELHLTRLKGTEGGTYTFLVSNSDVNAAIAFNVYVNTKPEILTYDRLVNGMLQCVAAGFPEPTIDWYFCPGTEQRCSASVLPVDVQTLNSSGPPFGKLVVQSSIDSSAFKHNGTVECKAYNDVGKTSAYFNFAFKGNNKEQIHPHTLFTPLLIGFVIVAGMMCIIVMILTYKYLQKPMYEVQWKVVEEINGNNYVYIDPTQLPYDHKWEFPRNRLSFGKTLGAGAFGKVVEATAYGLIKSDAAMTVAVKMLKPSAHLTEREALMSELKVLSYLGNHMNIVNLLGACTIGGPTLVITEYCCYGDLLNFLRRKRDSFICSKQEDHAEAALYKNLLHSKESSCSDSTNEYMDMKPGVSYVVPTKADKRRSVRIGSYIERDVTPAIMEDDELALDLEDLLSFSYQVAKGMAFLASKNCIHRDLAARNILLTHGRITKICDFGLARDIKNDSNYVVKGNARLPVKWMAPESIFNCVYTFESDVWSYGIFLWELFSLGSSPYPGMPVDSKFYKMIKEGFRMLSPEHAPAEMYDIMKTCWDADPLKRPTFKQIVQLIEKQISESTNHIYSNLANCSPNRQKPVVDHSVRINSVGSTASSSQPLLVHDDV

As for `CCc1cc(O)c(F)cc1-c1cc(F)c2c(-c3nc4c([nH]3)CCN(C(=O)CN3CCOCC3)C4)n[nH]c2c1` [Compound 1, 1-(2-(6-(2-ethyl-5-fluoro-4-hydroxyphenyl)-4-fluoro-1H-indazol-3-yl)-1,4,6,7-tetrahydro-5H-imidazo[4,5-c]pyridin-5-yl)-2-morpholinoethan-1-one], the values for the inhibition at 1 µM at KIT and against CSF1R were 87% and 98%, respectively. Moreover, the IC50 in assay [1] is about 79.4 nM. In addition, on Tyk2, the Ki was 2 nM.

What is called inhibition is the share of the control response that was lost under treatment.
